Experimental data published in US6677466B1, “Method for stabilizing hydrogen peroxide” (DSM Fine Chemicals Austria NFG GmbH & Co KG, priority 1999, dated 2004).

Assay: O2 evolution from RuO2.xH2O-catalysed decomposition of H2O2 with stabilizer
Format: physicochemical
Procedure: A 50% strength aqueous solution of H2O2 (304 mg; 4.46 mmol) was added to 454 mg (4.46 mmol) of methyl pyruvate and to 535 mg (4.46 mmol) of glyoxylic methyl ester methyl hemiacetal, respectively. In the case of methyl pyruvate, a marked evolution of heat was discovered during the addition. After one hour, the H2O2/α-keto ester mixture was mixed with 1 ml of solvent and added to a suspension of 2.5 mg of RuO2.xH2O catalyst (Aldrich) in 4 ml of solvent. The suspension was introduced into a 50 ml flask which was maintained at room temperature in a water bath.
As a comparison, a suspension of 2.5 mg of RuO2.xH2O catalyst (Aldrich) in 4 ml of solvent was combined with a 50% strength aqueous solution of H2O2 (304 mg; 4.46 mmol) and 1 ml of solvent without stabilizer.
The amount of oxygen which […] the decomposition of the hydrogen peroxide was determined as a function of time using a Brooks meter, which permitted measurement of the gas flow and of the total amount of evolved gas.
The amount of oxygen is defined here as % of the maximum amount to be calculated on the basis of stoichiometry.

## COC(=O)C(C)=O [methyl pyruvate]
solv. acetic acid, t 1 min
  O2 evolution V(O2) (Vmax(O2)*100%): 0%
solv. acetic acid, t 2 min
  O2 evolution V(O2) (Vmax(O2)*100%): 0%
solv. acetic acid, t 5 min
  O2 evolution V(O2) (Vmax(O2)*100%): 2%
solv. acetic acid, t 10 min
  O2 evolution V(O2) (Vmax(O2)*100%): 4%
solv. acetic acid, t 15 min
  O2 evolution V(O2) (Vmax(O2)*100%): 4%
solv. acetic acid, t 20 min
  O2 evolution V(O2) (Vmax(O2)*100%): 4%
solv. acetic acid, t 25 min
  O2 evolution V(O2) (Vmax(O2)*100%): 4%
solv. acetic acid, t 30 min
  O2 evolution V(O2) (Vmax(O2)*100%): 4%
solv. acetic acid, t 35 min
  O2 evolution V(O2) (Vmax(O2)*100%): 4%
solv. acetic acid, t 40 min
  O2 evolution V(O2) (Vmax(O2)*100%): 4%
solv. acetone, t 1 min
  O2 evolution V(O2) (Vmax(O2)*100%): 10%
solv. acetone, t 2 min
  O2 evolution V(O2) (Vmax(O2)*100%): 20%
solv. acetone, t 5 min
  O2 evolution V(O2) (Vmax(O2)*100%): 29%
solv. acetone, t 10 min
  O2 evolution V(O2) (Vmax(O2)*100%): 29%
solv. acetone, t 15 min
  O2 evolution V(O2) (Vmax(O2)*100%): 29%
solv. acetone, t 20 min
  O2 evolution V(O2) (Vmax(O2)*100%): 29%
solv. acetone, t 25 min
  O2 evolution V(O2) (Vmax(O2)*100%): 29%
solv. acetone, t 30 min
  O2 evolution V(O2) (Vmax(O2)*100%): 29%
solv. acetone, t 35 min
  O2 evolution V(O2) (Vmax(O2)*100%): 29%
solv. acetone, t 40 min
  O2 evolution V(O2) (Vmax(O2)*100%): 29%
solv. acetonitrile, t 1 min
  O2 evolution V(O2) (Vmax(O2)*100%): 9%
solv. acetonitrile, t 2 min
  O2 evolution V(O2) (Vmax(O2)*100%): 18%
solv. acetonitrile, t 5 min
  O2 evolution V(O2) (Vmax(O2)*100%): 30%
solv. acetonitrile, t 10 min
  O2 evolution V(O2) (Vmax(O2)*100%): 40%
solv. acetonitrile, t 15 min
  O2 evolution V(O2) (Vmax(O2)*100%): 47%
solv. acetonitrile, t 20 min
  O2 evolution V(O2) (Vmax(O2)*100%): 51%
solv. acetonitrile, t 25 min
  O2 evolution V(O2) (Vmax(O2)*100%): 53%
solv. acetonitrile, t 30 min
  O2 evolution V(O2) (Vmax(O2)*100%): 53%
solv. acetonitrile, t 35 min
  O2 evolution V(O2) (Vmax(O2)*100%): 53%
solv. acetonitrile, t 40 min
  O2 evolution V(O2) (Vmax(O2)*100%): 53%
solv. ethyl acetate, t 1 min
  O2 evolution V(O2) (Vmax(O2)*100%): 8%
solv. ethyl acetate, t 2 min
  O2 evolution V(O2) (Vmax(O2)*100%): 12%
solv. ethyl acetate, t 5 min
  O2 evolution V(O2) (Vmax(O2)*100%): 20%
solv. ethyl acetate, t 10 min
  O2 evolution V(O2) (Vmax(O2)*100%): 29%
solv. ethyl acetate, t 15 min
  O2 evolution V(O2) (Vmax(O2)*100%): 32%
solv. ethyl acetate, t 20 min
  O2 evolution V(O2) (Vmax(O2)*100%): 37%
solv. ethyl acetate, t 25 min
  O2 evolution V(O2) (Vmax(O2)*100%): 40%
solv. ethyl acetate, t 30 min
  O2 evolution V(O2) (Vmax(O2)*100%): 42%
solv. ethyl acetate, t 35 min
  O2 evolution V(O2) (Vmax(O2)*100%): 47%
solv. ethyl acetate, t 40 min
  O2 evolution V(O2) (Vmax(O2)*100%): 50%
solv. methanol, t 1 min
  O2 evolution V(O2) (Vmax(O2)*100%): 10%
solv. methanol, t 2 min
  O2 evolution V(O2) (Vmax(O2)*100%): 19%
solv. methanol, t 5 min
  O2 evolution V(O2) (Vmax(O2)*100%): 32%
solv. methanol, t 10 min
  O2 evolution V(O2) (Vmax(O2)*100%): 43%
solv. methanol, t 15 min
  O2 evolution V(O2) (Vmax(O2)*100%): 49%
solv. methanol, t 20 min
  O2 evolution V(O2) (Vmax(O2)*100%): 52%
solv. methanol, t 25 min
  O2 evolution V(O2) (Vmax(O2)*100%): 53%
solv. methanol, t 30 min
  O2 evolution V(O2) (Vmax(O2)*100%): 53%
solv. methanol, t 35 min
  O2 evolution V(O2) (Vmax(O2)*100%): 53%
solv. methanol, t 40 min
  O2 evolution V(O2) (Vmax(O2)*100%): 53%
solv. t-butanol, t 1 min
  O2 evolution V(O2) (Vmax(O2)*100%): 2%
solv. t-butanol, t 2 min
  O2 evolution V(O2) (Vmax(O2)*100%): 5%
solv. t-butanol, t 5 min
  O2 evolution V(O2) (Vmax(O2)*100%): 10%
solv. t-butanol, t 10 min
  O2 evolution V(O2) (Vmax(O2)*100%): 18%
solv. t-butanol, t 15 min
  O2 evolution V(O2) (Vmax(O2)*100%): 21%
solv. t-butanol, t 20 min
  O2 evolution V(O2) (Vmax(O2)*100%): 23%
solv. t-butanol, t 25 min
  O2 evolution V(O2) (Vmax(O2)*100%): 25%
solv. t-butanol, t 30 min
  O2 evolution V(O2) (Vmax(O2)*100%): 25%
solv. t-butanol, t 35 min
  O2 evolution V(O2) (Vmax(O2)*100%): 25%
solv. t-butanol, t 40 min
  O2 evolution V(O2) (Vmax(O2)*100%): 25%
solv. water, t 1 min
  O2 evolution V(O2) (Vmax(O2)*100%): 9%
solv. water, t 2 min
  O2 evolution V(O2) (Vmax(O2)*100%): 17%
solv. water, t 5 min
  O2 evolution V(O2) (Vmax(O2)*100%): 30%
solv. water, t 10 min
  O2 evolution V(O2) (Vmax(O2)*100%): 40%
solv. water, t 15 min
  O2 evolution V(O2) (Vmax(O2)*100%): 48%
solv. water, t 20 min
  O2 evolution V(O2) (Vmax(O2)*100%): 51%
solv. water, t 25 min
  O2 evolution V(O2) (Vmax(O2)*100%): 55%
solv. water, t 30 min
  O2 evolution V(O2) (Vmax(O2)*100%): 55%
solv. water, t 35 min
  O2 evolution V(O2) (Vmax(O2)*100%): 55%
solv. water, t 40 min
  O2 evolution V(O2) (Vmax(O2)*100%): 55%
